# Measurements taken from patent US20230095103A1, “COMPOSITIONS AND METHODS CONTAINING REDUCED NICOTINAMIDE RIBOSIDE FOR PREVENTION AND TREATMENT OF LUNG DISEASES AND CONDITIONS” (SOCIETE DES PRODUITS NESTLE S.A., priority 2020, published 2023).
# Counter-ions that a name gives are not always drawn. Like-named read-outs stand apart in the source and are kept apart here.
# Key:
# adenosine kinase (AK) = target: T1, adenosine kinase (AK) (Mus musculus, UniProt P55264); experiment: NRH-induced NAD+ synthesis with adenosine kinase inhibitors in AML12 cells; assay type: cell-based; settings: for effect of AK inhibitor on the action of NRH (NAD+ synthesis): inhibitor given before NRH treatment
# T1 construct: endogenous in cells; host or cells: AML12 cells
# T1 sequence (P55264 whole entry): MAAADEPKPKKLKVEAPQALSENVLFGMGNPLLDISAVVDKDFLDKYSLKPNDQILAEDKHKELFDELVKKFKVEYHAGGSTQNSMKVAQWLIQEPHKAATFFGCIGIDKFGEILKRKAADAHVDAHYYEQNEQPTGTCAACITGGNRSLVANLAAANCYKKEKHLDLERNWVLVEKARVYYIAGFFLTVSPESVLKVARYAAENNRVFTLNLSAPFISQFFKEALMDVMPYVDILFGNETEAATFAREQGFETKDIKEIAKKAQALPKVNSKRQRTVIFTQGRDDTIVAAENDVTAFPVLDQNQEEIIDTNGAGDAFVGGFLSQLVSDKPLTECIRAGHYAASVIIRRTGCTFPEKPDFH
# Protocol: AML12 cells were treated with an adenosine kinase inhibitor (5-IT; […]) for 1 hour prior to NRH treatment at the doses indicated. Then, 1 hour later, acidic extracts were obtained to measure NAD^+ levels. All values in the figure are expressed as mean+/−SEM of 3 independent experiments. * indicates statistical difference at p<0.05 vs. the respective vehicle treated group.
# [1] = Intraperitoneal injection of NR or NRH in mice: tissue NAD+ and circulating metabolites; assay type: in vivo; settings: for NAD+ levels in liver, muscle and kidney: mice, IP 500 mg/kg, after 1 h
# Protocol: The above results prompted us to test whether NRH could act as an effective NAD+ precursor in vivo. For this, we first intraperitoneally (IP) injected mice with either NR or NRH (500 mg/kg). […] Importantly, NRH was detectable in circulation after IP injection.
# [2] = Stability in FBS supplemented media; assay type: in vitro ADME
# Protocol: (§1) NR degradation to NAM has been proposed as a limitation for its pharmacological efficacy. To evaluate whether NRH was also susceptible to degradation to NAM, we spiked NRH or NR in isolated mouse plasma. […] We also tested the stability of NRH in other matrixes. […] Finally, we also certified NRH stability in water (pH=7, at room temperature) for 48 h.
# [3] = assay type: in vivo, mice
# Protocol: 8 week-old C57BI/6NTac mice were orally gavaged with either saline (as vehicle), NR (500 mg/kg) or NRH (500 mg/kg). After 1 hour, liver, skeletal muscle and kidney NAD+ levels were evaluated. All results are expressed as mean+/−SEM of n=5 mice per group. * indicates statistical difference at p<0.05 vs. vs. saline-treated mice. # indicates statistical difference at p<0.05 vs. NR treated mice.
# Oral administration of NRH led to very similar results to those observed after IP administration. […] NRH was detectable in plasma 1 h after oral administration. In contrast, NR levels were undetectable at 1 h after NR administration.
# [4] = Stability of NRH or NR spiked in isolated mouse plasma; assay type: in vitro ADME
# Protocol: as §1
# [5] = system: intracellular NRH, NMNH, NR and NMN; experiment: Intracellular NAD-related metabolites after NRH or NR treatment; assay type: cell-based; settings: for intracellular detection of NRH and NMNH: 5 minutes after treatment
# From the text: (§2) Levels of NRH and other NAD-related metabolites in biological samples were obtained by using a cold liquid-liquid extraction using a mixture of methanol:water:chloroform in 5:3:5 (v/v), from which the polar phase was recovered for hydrophilic interaction ultra-high performance liquid chromatography mass spectrometry (UHPLC-MS) analysis. The UHPLC consisted of a binary pump, a cooled autosampler, and a column oven (DIONEX Ultimate 3000 UHPLC+ Focused, Thermo Scientific), connected to a triple quadrupole spectrometer (TSQ Vantage, Thermo Scientific) equipped with a heated electrospray ionisation (H-ESI) source. Of each sample, 2 μL were injected into the analytical column (2.1 mm×150 mm, 5 μm pore size, 200 Å HILICON iHILIC®-Fusion(P)), guarded by a pre-column (2.1 mm×20 mm, 200 Å HILICON iHILIC®-Fusion(P) Guard Kit) operating at 35° C. The mobile phase (10 mM ammonium acetate at pH 9, A, and acetonitrile, B) was pumped at 0.25 mL/min flow rate over a linear gradient of decreasing organic solvent (0.5-16 min, 90-25% B), followed by re-equilibration for a total run time of 30 min. The MS operated in positive mode at 3500 V with multiple reaction monitoring (MRM). The software Xcalibur v4.1.31.9 (Thermo Scientific) was used for instrument control, data acquisition and processing. Retention time and mass detection was confirmed by authentic standards.
# A path in which NRH would be converted to NMNH, then to NADH and this would be finally oxidized to NAD+.
# NRK1 = experiment: NAD+ levels in primary hepatocytes from control or NRK1 knockout mice; settings: after 1 hour of treatment
# AML12 hepatocytes = experiment: Intracellular NAD+ levels in AML12 hepatocytes after NRH or NR treatment (dose-response, time course); assay type: cell-based
# From the text: as §2
# Even at such relatively low dose, NRH achieved similar increases in intracellular NAD+ levels to those reached with NR at 50-fold higher concentrations. NRH achieved maximal effects on NAD+ synthesis around the millimolar range, managing to increase intracellular NAD+ levels by more than 10-fold.
# NRH actions were also extremely fast (FIG. 3), as significant increases in NAD+ levels were observed within 5 minutes after NRH treatment.
# NAMPT = target: T2, NAMPT (Mus musculus, UniProt Q99KQ4); experiment: NRH action in the presence of the NAMPT inhibitor FK866; assay type: cell-based; settings: with FK866, a NAMPT inhibitor
# T2 construct: endogenous in cells
# T2 sequence (Q99KQ4 whole entry): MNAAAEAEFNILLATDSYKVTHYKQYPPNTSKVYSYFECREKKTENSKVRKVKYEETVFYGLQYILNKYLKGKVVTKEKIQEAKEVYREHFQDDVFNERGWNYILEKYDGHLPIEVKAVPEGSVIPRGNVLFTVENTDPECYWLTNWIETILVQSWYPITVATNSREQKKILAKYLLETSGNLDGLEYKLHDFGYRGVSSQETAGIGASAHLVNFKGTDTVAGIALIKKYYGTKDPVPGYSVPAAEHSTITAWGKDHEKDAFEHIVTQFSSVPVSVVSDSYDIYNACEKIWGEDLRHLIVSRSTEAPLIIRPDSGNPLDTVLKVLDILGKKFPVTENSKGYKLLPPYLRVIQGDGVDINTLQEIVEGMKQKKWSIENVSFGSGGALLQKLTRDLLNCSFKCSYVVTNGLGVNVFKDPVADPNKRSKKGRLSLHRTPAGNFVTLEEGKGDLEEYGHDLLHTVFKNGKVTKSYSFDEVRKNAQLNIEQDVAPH
# C2C12 myotubes = experiment: NAD+ levels in C2C12 myotubes after NRH treatment; assay type: cell-based
# Protocol: (§3) The ability of NRH to potently increase NAD+ was tested as well in other cell type models.
# [6] = assay type: physicochemical
# Protocol: as §1
# [7] = design: species or system mice; settings: mouse, in vivo, 250 mg/kg
# Protocol: 8 week-old C57BI/6NTac mice were orally gavaged with either saline (as vehicle), and NRH (250 mg/kg). After 2 hours, liver, skeletal muscle and kidney NRH levels were evaluated. All results are expressed as mean+/−SEM of n=4 mice per group, as areas under the signal by LC-MS analysis, corrected by total protein amount of tissue.
# INS1-cells = experiment: NAD+ levels in INS1-cells after NRH treatment; assay type: cell-based
# Protocol: as §3
# [8] = system: equilibrative nucleoside transporters (ENTs); experiment: NRH-induced NAD+ synthesis under ENT blockade with NBTI; assay type: cell-based; settings: in the presence of NBTI
# From the text: In order to understand the exact path by which NRH synthesizes NAD+, we initially evaluated whether NRH, could be transported into the cell by equilibrative nucleoside transporters (ENTs).
# [9] = system: Salmonella enterica serovar Typhimurium; experiment: Anti-bacterial response of monocyte-derived macrophages against Salmonella (CFU counts); assay type: cell-based; settings: 0.01 mM NRH for 42 h prior to infection, MOI 10
# Protocol: Monocyte-derived macrophages were treated with 0.01 mM NRH for 42 h prior to infection with Salmonella enterica serovar Typhimurium for 1 h using a multiplicity of infection of 10. Following infection, macrophages were treated with gentamicin for 2 h before cell lysis. Values show absolute colony forming unit (CFU) counts with each dot representing one donor and each line representing paired samples. Graphs show pooled data of 2 independent experiments with 2-3 donors/experiment.
# 3T3 fibroblasts = experiment: NAD+ levels in 3T3 fibroblasts after NRH treatment; assay type: cell-based
# Protocol: as §3
# NMNAT = experiment: NRH-induced NAD+ synthesis with the NMNAT inhibitor gallotannin; assay type: cell-based
# From the text: As a follow-up step, NMNAT enzymes could catalyze the transition from NMNH to NADH.
# [10] = isolated mouse plasma, 2 h of incubation
compound,measurement,setting,value
"Nc1ncnc2c1c(I)cn2[C@@H]1O[C@H](CO)[C@@H](O)[C@H]1O [5-IT, 5-iodotubercidin]",formation of NR and NMN after NRH treatment,adenosine kinase (AK); 5-IT treatment,prevented
same,effect of AK inhibitor on the action of NRH (NAD+ synthesis),adenosine kinase (AK),fully ablated the action of NRH
Nc1ncnc2nc(-c3ccc(N4CCOCC4)nc3)cc(-c3cccc(Br)c3)c12 [ABT-702],effect of AK inhibitor on the action of NRH (NAD+ synthesis),adenosine kinase (AK),confirmed
"NC(=O)c1ccc[n+]([C@@H]2O[C@H](CO)[C@@H](O)[C@H]2O)c1 [NR, 1-b-D-ribofuranosyl-3-pyridinecarboxamide salt, reference compound]","NAD+ levels in liver, muscle and kidney",[1],increased
same,degradation to NAM,[2]; FBS supplemented media,occurs
same,circulating NAM after NR treatment relative to NRH treatment,"[3]; C57BI/6NTac, mouse, in vivo, po, 1 h",−4 fold
same,generation of NAM in plasma,[4]; [10],increase in NAM
same,levels of the compound in plasma,[4]; [10],decayed
same,intracellular detection of NRH and NMNH,[5],not
same,NAD+ levels in NRK1 KO derived primary hepatocytes,NRK1,failed to increase NAD+ levels
"NC(=O)C1=CN([C@@H]2O[C@H](CO)[C@@H](O)[C@H]2O)C=CC1 [NRH, dihydro-1-beta-D-ribofuranosyl-3-pyridinecarboxamide]",time to significant increase in NAD+ levels after treatment,"AML12 hepatocytes; AML12 hepatocytes, FIG. 3",≤ 5 min
same,increase of intracellular NAD+ levels at maximal effect,"AML12 hepatocytes; AML12 hepatocytes, around the millimolar range",more than 10 fold
same,ability to increase intracellular NAD+,"AML12 hepatocytes; AML12 hepatocytes, compared with NR",superior to that of NR
same,concentration at which NAD+ levels are significantly increased,"AML12 hepatocytes; AML12 hepatocytes, dose-response, FIG. 2",10 µM
same,"NR concentration needed for similar increase in intracellular NAD+, relative to NRH",AML12 hepatocytes; NRH at 10 μM,50 fold
same,dependence of NRH action on NAMPT,NAMPT,NAMPT-independent
same,NAD+ levels,C2C12 myotubes,highly elevated NAD+ levels
same,stability in water,[6],48 h
same,"generation of NMNH, NADH and NAD+ from NRH","adenosine kinase (AK); upon inhibition of AK, metabolomic analyses",fully blunted
same,"NRH in liver, kidney and muscle",[7],"found intact, in high levels"
same,"NAD+ levels in liver, muscle and kidney",[1],increased
same,NR in circulation after NRH treatment,"[1]; mouse, in vivo, ip",much higher levels than those detected after NR injection itself
same,NRH in circulation,"[1]; mouse, in vivo, ip",detectable
same,NAM levels in circulation,"[1]; mouse, in vivo, ip, 500 mg/kg",only a very mild increase
same,NAD+ levels,INS1-cells,highly elevated NAD+ levels
same,degradation to NAM,[2],did not degrade to NAM
same,effect on hepatic NAD+ levels,"[3]; mice, oral administration, compared with NR",more potent effect on hepatic NAD+ levels than NR
same,capacity as extracellular NAD+ precursor under ENT blockade,[8],largely lost its capacity as an extracellular NAD+ precursor
same,NR production in plasma,[4],did not lead to NR production
same,intracellular detection of NRH and NMNH,[5],could be detected
same,increase in intracellular NR and NMN,"[5]; after NRH treatment, compared with NR",greater than that triggered by NR itself
same,anti-bacterial macrophage response (CFU counts),[9],able to augment anti-bacterial macrophage response
same,NAD+ levels,3T3 fibroblasts,highly elevated NAD+ levels
O=C(OC[C@H]1O[C@@H](OC(=O)c2cc(O)c(O)c(OC(=O)c3cc(O)c(O)c(O)c3)c2)[C@H](OC(=O)c2cc(O)c(O)c(OC(=O)c3cc(O)c(O)c(O)c3)c2)[C@@H](OC(=O)c2cc(O)c(O)c(OC(=O)c3cc(O)c(O)c(O)c3)c2)[C@@H]1OC(=O)c1cc(O)c(O)c(OC(=O)c2cc(O)c(O)c(O)c2)c1)c1cc(O)c(O)c(OC(=O)c2cc(O)c(O)c(O)c2)c1 [gallotannin],effect of NMNAT inhibitor on NAD+ synthesis after NRH treatment,NMNAT,largely compromised NAD+ synthesis after NRH treatment
same,NRH action after gallotannin treatment,NMNAT; NRH at maximal doses (0.5 mM),part of the NRH action remained
same,NRH action after gallotannin treatment,NMNAT; NRH at submaximal doses,totally blocked
